US6737383B1, “Herbicidal oxadiazolidines” (priority 1999, dated 2004)

Legend:
[1] = test system: bedstraw; experiment: Test B pre/postemergence bedstraw; type: in vivo, Galium aparine
Method in brief: (§1)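 Test chemicals in a non-phytotoxic solvent mixture with surfactant were sprayed preemergence onto planted seeds and postemergence onto plants 2 to 18 cm tall (1- to 4-leaf stage). After twelve to sixteen days in a greenhouse, injury was visually rated against untreated controls from 0 (no effect) to 10 (complete control).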

[2] = test system: blackgrass; experiment: Test B pre/postemergence blackgrass; type: in vivo, Alopecurus myosuroides
Method in brief: as §1

[3] = test system: surinam grass; experiment: Test B pre/postemergence surinam grass; type: in vivo, Brachiaria decumbens
Method in brief: as §1

[4] = test system: cocklebur; experiment: Test B pre/postemergence cocklebur; type: in vivo, Xanthium strumarium
Method in brief: as §1

[5] = test system: corn; experiment: Test B pre/postemergence corn; type: in vivo, Zea mays
Method in brief: as §1

[6] = test system: crabgrass; experiment: Test B pre/postemergence crabgrass; type: in vivo, Digitaria sanguinalis
Method in brief: as §1

[7] = test system: giant foxtail; experiment: Test B pre/postemergence giant foxtail; type: in vivo, Setaria faberii
Method in brief: as §1

[8] = test system: morningglory; experiment: Test B pre/postemergence morningglory; type: in vivo, Ipomoea hederacea
Method in brief: as §1

[9] = test system: pigweed; experiment: Test B pre/postemergence pigweed; type: in vivo, Amaranthus retroflexus
Method in brief: as §1

[10] = test system: rape; experiment: Test B pre/postemergence rape; type: in vivo, Brassica napus
Method in brief: as §1

[11] = test system: soybean; experiment: Test B pre/postemergence soybean; type: in vivo, Glycine max
Method in brief: as §1

[12] = test system: sugar beet; experiment: Test B pre/postemergence sugar beet; type: in vivo, Beta vulgaris
Method in brief: as §1

[13] = test system: velvetleaf; experiment: Test B pre/postemergence velvetleaf; type: in vivo, Abutilon theophrasti
Method in brief: as §1

[14] = test system: wheat; experiment: Test B pre/postemergence wheat; type: in vivo, Triticum aestivum
Method in brief: as §1

[15] = test system: wild oat; experiment: Test B pre/postemergence wild oat; type: in vivo, Avena fatua
Method in brief: as §1

[16] = test system: purple nutsedge; experiment: Test B pre/postemergence purple nutsedge; type: in vivo, Cyperus rotundus
Method in brief: as §1

[17] = Postemergence, Rate 62 g/ha, scale of 0 to 10, 0 is no effect, 10 is complete control
[18] = Postemergence, Rate 125 g/ha, scale of 0 to 10 where 0 is no effect and 10 is complete control
[19] = Postemergence, Rate 250 g/ha, scale of 0 to 10, 0 is no effect, 10 is complete control
[20] = Preemergence, Rate 62 g/ha, scale 0 to 10 (0 no effect, 10 complete control)
[21] = Preemergence, Rate 500 g/ha, scale of 0 to 10 where 0 is no effect and 10 is complete control
[22] = Postemergence, Rate 500 g/ha, scale of 0 to 10 where 0 is no effect and 10 is complete control
[23] = Preemergence, Rate 125 g/ha, scale of 0 to 10 where 0 is no effect and 10 is complete control
[24] = Preemergence, Rate 62 g/ha, scale of 0 to 10 where 0 is no effect and 10 is complete control
[25] = Preemergence, Rate 250 g/ha, scale 0 to 10 (0 no effect, 10 complete control)

CC(C)N(C(=O)n1oc(=O)n(CCC(F)(F)F)c1=O)c1ccccc1 [Compound 584]
7: Plant response rating, Blackgrass [2, 18] | Blackgrass plant response rating [2, 19] | Plant response rating, Blackgrass [2, 22] | B. signalgrass plant response rating [3, 19] | B. signalgrass plant response rating [3, 20] | B. signalgrass plant response rating [3, 23] | Plant response rating, Crabgrass [6, 18] | Giant foxtail plant response rating [7, 17] | Plant response rating, Redroot pigweed [9, 22] | Redroot pigweed plant response rating [9, 20] | Plant response rating, Wild oats [15, 22]
9: Bedstraw plant response rating [1, 19] | Bedstraw plant response rating [1, 20] | Bedstraw plant response rating (0 to 10 scale) ([1]; Preemergence, Rate 250 g/ha) | Bedstraw plant response rating [1, 21] | Blackgrass plant response rating [2, 20] | Plant response rating, B. signalgrass [3, 22] | B. signalgrass plant response rating [3, 21] | Plant response rating, Crabgrass [6, 22] | Crabgrass plant response rating [6, 21] | Giant foxtail plant response rating [7, 19] | Plant response rating, Giant foxtail [7, 22] | Giant foxtail plant response rating [7, 20] | Redroot pigweed plant response rating [9, 21] | Rape plant response rating [10, 19] | Plant response rating, Rape [10, 22] | Wild oats plant response rating [15, 21]
4: Cocklebur plant response rating [4, 19] | Plant response rating, Cocklebur [4, 22] | Plant response rating, Corn [5, 22] | Plant response rating, Morningglory [8, 18] | Morningglory plant response rating [8, 20] | Morningglory plant response rating [8, 23] | Plant response rating, Rape [10, 18] | Rape plant response rating [10, 23] | Rape plant response rating [10, 21] | Plant response rating, Soybean [11, 22]
5: Bedstraw plant response rating [1, 17] | Plant response rating, Bedstraw [1, 18] | Blackgrass plant response rating [2, 17] | Morningglory plant response rating [8, 19] | Sugarbeets plant response rating [12, 19] | Sugarbeets plant response rating [12, 21] | Plant response rating, Velvetleaf [13, 22] | Velvetleaf plant response rating [13, 21]
2: Plant response rating, Cocklebur [4, 18] | Plant response rating, Corn [5, 18] | Corn plant response rating (0 to 10 scale) ([5]; Preemergence, Rate 250 g/ha) | Plant response rating, Redroot pigweed [9, 18] | Redroot pigweed plant response rating [9, 19] | Plant response rating, Sugarbeets [12, 18] | Sugarbeets plant response rating [12, 23] | Plant response rating, Wheat [14, 18] | Wild oats plant response rating [15, 19] | Wild oats plant response rating [15, 23]
8: Blackgrass plant response rating (0 to 10 scale) ([2]; Preemergence, Rate 250 g/ha) | Crabgrass plant response rating [6, 20] | Crabgrass plant response rating [6, 23] | Plant response rating, Giant foxtail [7, 18] | Giant foxtail plant response rating [7, 23] | Redroot pigweed plant response rating [9, 23] | Plant response rating, Sugarbeets [12, 22]
6: Crabgrass plant response rating [6, 19] | Plant response rating, Wheat [14, 22]
3: B. signalgrass plant response rating [3, 17] | Plant response rating, B. signalgrass [3, 18] | Corn plant response rating [5, 19] | Corn plant response rating [5, 21] | Plant response rating, Morningglory [8, 22] | Morningglory plant response rating [8, 21] | Rape plant response rating [10, 17] | Rape plant response rating [10, 20] | Plant response rating, Soybean [11, 18] | Soybean plant response rating [11, 19] | Plant response rating, Velvetleaf [13, 18] | Velvetleaf plant response rating [13, 19] | Wheat plant response rating [14, 19] | Wheat plant response rating [14, 21] | Plant response rating, Nutsedge [16, 22]
1: Crabgrass plant response rating [6, 17] | Morningglory plant response rating [8, 17]
0: Cocklebur plant response rating [4, 17] | Cocklebur plant response rating [4, 20] | Cocklebur plant response rating [4, 23] | Cocklebur plant response rating (0 to 10 scale) ([4]; Preemergence, Rate 250 g/ha) | Cocklebur plant response rating [4, 21] | Corn plant response rating [5, 17] | Corn plant response rating [5, 20] | Corn plant response rating [5, 23] | Soybean plant response rating [11, 20] | Soybean plant response rating [11, 23] | Soybean plant response rating [11, 21] | Sugarbeets plant response rating [12, 20] | Velvetleaf plant response rating [13, 20] | Velvetleaf plant response rating [13, 23] | Wheat plant response rating [14, 20] | Wheat plant response rating [14, 23] | Plant response rating, Wild oats [15, 18] | Wild oats plant response rating [15, 20] | Nutsedge plant response rating [16, 17] | Plant response rating, Nutsedge [16, 18] | Nutsedge plant response rating [16, 19] | Nutsedge plant response rating [16, 20] | Nutsedge plant response rating [16, 23] | Nutsedge plant response rating [16, 21]
10: Giant foxtail plant response rating [7, 21]

CC(C)N(C(=O)n1oc(=O)n(C(C)C)c1=O)c1ccc(Br)cc1 [Compound 691]
10: Plant response rating, Blackgrass [2, 25] | Plant response rating, Blackgrass [2, 21] | Plant response rating, B. signalgrass [3, 21] | Plant response rating, Crabgrass [6, 25] | Plant response rating, Giant foxtail [7, 23]
9: Plant response rating, Bedstraw [1, 23] | Plant response rating, Bedstraw [1, 25] | Plant response rating, Blackgrass [2, 23] | Plant response rating, B. signalgrass [3, 25] | Crabgrass plant response rating [6, 24] | Plant response rating, Crabgrass [6, 23] | Giant foxtail plant response rating [7, 24]
0: Bedstraw plant response rating [1, 24] | B. signalgrass plant response rating [3, 24] | Cocklebur plant response rating [4, 24] | Plant response rating, Cocklebur [4, 25] | Plant response rating, Cocklebur [4, 21] | Corn plant response rating [5, 24] | Plant response rating, Corn [5, 23] | Plant response rating, Corn [5, 25] | Morningglory plant response rating [8, 24] | Plant response rating, Morningglory [8, 23] | Rape plant response rating [10, 24] | Sugarbeets plant response rating [12, 24] | Velvetleaf plant response rating [13, 24] | Plant response rating, Velvetleaf [13, 23] | Wheat plant response rating [14, 24] | Plant response rating, Wheat [14, 23] | Nutsedge plant response rating [16, 24]
4: Blackgrass plant response rating [2, 24]
8: Plant response rating, B. signalgrass [3, 23]
2: Redroot pigweed plant response rating [9, 24] | Soybean plant response rating [11, 24] | Plant response rating, Soybean [11, 23] | Plant response rating, Sugarbeets [12, 23] | Wild oats plant response rating [15, 24]
3: Plant response rating, Redroot pigweed [9, 23] | Plant response rating, Rape [10, 23]
6: Plant response rating, Wild oats [15, 23]
